# In patent EP1631829B1, “METHOD AND APPARATUS FOR CHARACTERIZATION OF INTERACTIONS” (GE Healthcare Bio-Sciences AB, priority 2003, dated 2004):
# Molecular target: T1, HSA (Homo sapiens, UniProt P02768)
# T1 construct: purchased Sigma A 3782
# Test: two-sample (dual) gradient pulse injection SPR assay, site availability of drugs binding to HSA
# Conditions: digitoxin and warfarin, 50 µM each, added individual responses vs mixture, 25 °C
# T1 sequence (P02768 25-609): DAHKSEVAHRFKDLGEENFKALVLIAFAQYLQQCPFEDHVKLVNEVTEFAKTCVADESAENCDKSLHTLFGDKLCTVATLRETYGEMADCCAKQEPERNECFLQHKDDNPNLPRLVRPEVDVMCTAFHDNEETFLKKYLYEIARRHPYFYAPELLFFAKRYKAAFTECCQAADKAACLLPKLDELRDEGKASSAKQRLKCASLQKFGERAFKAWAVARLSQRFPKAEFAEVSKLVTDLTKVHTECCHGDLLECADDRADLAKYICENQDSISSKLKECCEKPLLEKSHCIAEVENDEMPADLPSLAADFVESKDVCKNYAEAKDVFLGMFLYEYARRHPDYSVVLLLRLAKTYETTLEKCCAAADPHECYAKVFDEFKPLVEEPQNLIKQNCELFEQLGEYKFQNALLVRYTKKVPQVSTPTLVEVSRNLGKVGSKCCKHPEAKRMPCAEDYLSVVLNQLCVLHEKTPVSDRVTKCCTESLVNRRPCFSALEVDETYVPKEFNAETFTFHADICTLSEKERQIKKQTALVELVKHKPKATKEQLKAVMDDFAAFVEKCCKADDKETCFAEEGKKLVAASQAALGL
smiles,measurement,value
"C[C@H]1O[C@@H](O[C@H]2[C@@H](O)C[C@H](O[C@H]3[C@@H](O)C[C@H](O[C@H]4CC[C@@]5(C)[C@H](CC[C@@H]6[C@@H]5CC[C@]5(C)[C@@H](C7=CC(=O)OC7)CC[C@]65O)C4)O[C@@H]3C)O[C@@H]2C)C[C@H](O)[C@@H]1O [Digitoxin, digitoxin]",binding site relation on HSA,non-competitive binders
